Assays:
rice (Diamant variety) = test: Rice seed treatment with BHMPA salts: germinating power; assay type: in vivo
In short: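 Seeds (50 per Petri dish on two layers of filter paper) soaked 1 h in BHMPA or its Ca, Mg, Na, Co, Mn, Cu or Zn salts at 1·10^−6-1·10^−12%, with water controls. Germination energy read on day 4, germination on day 8 (wheat) or day 7 (rice, corn), as % means of four replicates. Germinating power taken as root and sprout length plus wet and dry mass per 100 seedlings.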

[1] = test system: corn (Krasnodar 385 MV variety); test: Corn seed treatment with BHMPA salts: germination energy and germination rate; assay type: in vivo
In short: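 Corn, winter wheat and rice seeds (50 per dish, on filter paper) were soaked for 1 h in BHMPA or its metal salts at 1·10^−6-1·10^−12%, with water as control. Germination energy was read on day 4 and germination rate on day 8 for wheat and day 7 for rice and corn, following GOST 12038-84, as the mean of four replicates.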

[2] = rice seed treatment, comparison with Melaphen (Table XXXIII), solution 1 · 10^−11%
[3] = rice seeds, solution concentration 1 · 10^−6%
[4] = rice seeds, solution concentration 1 · 10^−7%
[5] = rice seeds, solution concentration 1 · 10^−8%
[6] = rice seeds, solution concentration 1 · 10^−9%
[7] = rice seeds, solution concentration 1 · 10^−10%
[8] = rice seeds, solution concentration 1 · 10^−11%
[9] = rice seeds, solution concentration 1 · 10^−12%
[10] = rice, vs control, 1·10^−11% solution
[11] = comparative study vs Melaphen, 1·10^−10% solution

O=P([O-])(CO)CO.[Na+] [Na-salt, Sodium BHMPA Salt]
optimum concentration for treating rice seeds before sowing (rice (Diamant variety); rice): 1·10^−11%
Length, root (rice (Diamant variety); [2]): 5.9 cm
Length, root, + % to control (rice (Diamant variety); [2]): 23%
Length, sprout (rice (Diamant variety); [2]): 3.4 cm
Length, sprout, + % to control (rice (Diamant variety); [2]): 46%
Mass, dry, root (rice (Diamant variety); [2]): 0.22 g/100 plantlings
Mass, dry, root, + % to control (rice (Diamant variety); [2]): 5%
Mass, dry, sprout (rice (Diamant variety); [2]): 0.26 g/100 plantlings
Mass, dry, sprout, + % to control (rice (Diamant variety); [2]): 24%
Mass, wet, root (rice (Diamant variety); [2]): 1.31 g/100 plantlings
Mass, wet, root, + % to control (rice (Diamant variety); [2]): 34%
Mass, wet, sprout (rice (Diamant variety); [2]): 2.22 g/100 plantlings
Mass, wet, sprout, + % to control (rice (Diamant variety); [2]): 47%
Length, root (rice (Diamant variety); [3]): 5.4 cm
Length, root, + % to control (rice (Diamant variety); [3]): 4%
Length, sprout (rice (Diamant variety); [3]): 2.3 cm
Length, sprout, + % to control (rice (Diamant variety); [3]): 9.5%
Mass, dry, root (rice (Diamant variety); [3]): 0.21 g/100 plantlings
Mass, dry, root, + % to control (rice (Diamant variety); [3]): 5%
Mass, dry, sprout (rice (Diamant variety); [3]): 0.28 g/100 plantlings
Mass, dry, sprout, + % to control (rice (Diamant variety); [3]): 8%
Mass, wet, root (rice (Diamant variety); [3]): 1.06 g/100 plantlings
Mass, wet, root, + % to control (rice (Diamant variety); [3]): 16.5%
Mass, wet, sprout (rice (Diamant variety); [3]): 1.73 g/100 plantlings
Mass, wet, sprout, + % to control (rice (Diamant variety); [3]): 5.5%
Length, root (rice (Diamant variety); [4]): 5.6 cm
Length, root, + % to control (rice (Diamant variety); [4]): 8%
Length, sprout (rice (Diamant variety); [4]): 2.4 cm
Length, sprout, + % to control (rice (Diamant variety); [4]): 14%
Mass, dry, root (rice (Diamant variety); [4]): 0.22 g/100 plantlings
Mass, dry, root, + % to control (rice (Diamant variety); [4]): 10%
Mass, dry, sprout (rice (Diamant variety); [4]): 0.30 g/100 plantlings
Mass, dry, sprout, + % to control (rice (Diamant variety); [4]): 15%
Mass, wet, root (rice (Diamant variety); [4]): 1.10 g/100 plantlings
Mass, wet, root, + % to control (rice (Diamant variety); [4]): 21%
Mass, wet, sprout (rice (Diamant variety); [4]): 1.81 g/100 plantlings
Mass, wet, sprout, + % to control (rice (Diamant variety); [4]): 10%
Length, root (rice (Diamant variety); [5]): 5.8 cm
Length, root, + % to control (rice (Diamant variety); [5]): 11.5%
Length, sprout (rice (Diamant variety); [5]): 2.6 cm
Length, sprout, + % to control (rice (Diamant variety); [5]): 24%
Mass, dry, root (rice (Diamant variety); [5]): 0.23 g/100 plantlings
Mass, dry, root, + % to control (rice (Diamant variety); [5]): 15%
Mass, dry, sprout (rice (Diamant variety); [5]): 0.31 g/100 plantlings
Mass, dry, sprout, + % to control (rice (Diamant variety); [5]): 19%
Mass, wet, root (rice (Diamant variety); [5]): 1.14 g/100 plantlings
Mass, wet, root, + % to control (rice (Diamant variety); [5]): 25%
Mass, wet, sprout (rice (Diamant variety); [5]): 1.89 g/100 plantlings
Mass, wet, sprout, + % to control (rice (Diamant variety); [5]): 15%
Length, root (rice (Diamant variety); [6]): 6.0 cm
Length, root, + % to control (rice (Diamant variety); [6]): 15%
Length, sprout (rice (Diamant variety); [6]): 2.8 cm
Length, sprout, + % to control (rice (Diamant variety); [6]): 33%
Mass, dry, root (rice (Diamant variety); [6]): 0.25 g/100 plantlings
Mass, dry, root, + % to control (rice (Diamant variety); [6]): 25%
Mass, dry, sprout (rice (Diamant variety); [6]): 0.33 g/100 plantlings
Mass, dry, sprout, + % to control (rice (Diamant variety); [6]): 27%
Mass, wet, root (rice (Diamant variety); [6]): 1.17 g/100 plantlings
Mass, wet, root, + % to control (rice (Diamant variety); [6]): 28.5%
Mass, wet, sprout (rice (Diamant variety); [6]): 2.00 g/100 plantlings
Mass, wet, sprout, + % to control (rice (Diamant variety); [6]): 22%
Length, root (rice (Diamant variety); [7]): 6.3 cm
Length, root, + % to control (rice (Diamant variety); [7]): 21%
Length, sprout (rice (Diamant variety); [7]): 3.5 cm
Length, sprout, + % to control (rice (Diamant variety); [7]): 58%
Mass, dry, root (rice (Diamant variety); [7]): 0.27 g/100 plantlings
Mass, dry, root, + % to control (rice (Diamant variety); [7]): 35%
Mass, dry, sprout (rice (Diamant variety); [7]): 0.35 g/100 plantlings
Mass, dry, sprout, + % to control (rice (Diamant variety); [7]): 35%
Mass, wet, root (rice (Diamant variety); [7]): 1.26 g/100 plantlings
Mass, wet, root, + % to control (rice (Diamant variety); [7]): 38%
Mass, wet, sprout (rice (Diamant variety); [7]): 2.18 g/100 plantlings
Mass, wet, sprout, + % to control (rice (Diamant variety); [7]): 33%
Length, root (rice (Diamant variety); [8]): 6.4 cm
Length, root, + % to control (rice (Diamant variety); [8]): 23%
Length, sprout (rice (Diamant variety); [8]): 4.0 cm
Length, sprout, + % to control (rice (Diamant variety); [8]): 90%
Mass, dry, root (rice (Diamant variety); [8]): 0.30 g/100 plantlings
Mass, dry, root, + % to control (rice (Diamant variety); [8]): 50%
Mass, dry, sprout (rice (Diamant variety); [8]): 0.39 g/100 plantlings
Mass, dry, sprout, + % to control (rice (Diamant variety); [8]): 50%
Mass, wet, root (rice (Diamant variety); [8]): 1.35 g/100 plantlings
Mass, wet, root, + % to control (rice (Diamant variety); [8]): 48%
Mass, wet, sprout (rice (Diamant variety); [8]): 2.30 g/100 plantlings
Mass, wet, sprout, + % to control (rice (Diamant variety); [8]): 40%
Length, root (rice (Diamant variety); [9]): 6.2 cm
Length, root, + % to control (rice (Diamant variety); [9]): 19%
Length, sprout (rice (Diamant variety); [9]): 3.6 cm
Length, sprout, + % to control (rice (Diamant variety); [9]): 71%
Mass, dry, root (rice (Diamant variety); [9]): 0.26 g/100 plantlings
Mass, dry, root, + % to control (rice (Diamant variety); [9]): 30%
Mass, dry, sprout (rice (Diamant variety); [9]): 0.33 g/100 plantlings
Mass, dry, sprout, + % to control (rice (Diamant variety); [9]): 27%
Mass, wet, root (rice (Diamant variety); [9]): 1.18 g/100 plantlings
Mass, wet, root, + % to control (rice (Diamant variety); [9]): 30%
Mass, wet, sprout (rice (Diamant variety); [9]): 2.23 g/100 plantlings
Mass, wet, sprout, + % to control (rice (Diamant variety); [9]): 36%
dry mass of the roots increased by (rice (Diamant variety); [10]): 50%
dry mass of the sprouts increased by (rice (Diamant variety); [10]): 50%
length of the root increased by (rice (Diamant variety); [10]): 23%
length of the sprout increased by (rice (Diamant variety); [10]): 90%
wet mass of the roots increased by (rice (Diamant variety); [10]): 48%
wet mass of the sprouts increased by (rice (Diamant variety); [10]): 40%
Germination energy ([1]; 1·10^−6% solution): 75.7%
Germination rate ([1]; 1·10^−6% solution): 78.3%
Germination energy ([1]; 1·10^−7% solution): 78.0%
Germination rate ([1]; 1·10^−7% solution): 81.8%
Germination energy ([1]; 1·10^−8% solution): 84.8%
Germination rate ([1]; 1·10^−8% solution): 87.5%
Germination energy ([1]; 1·10^−9% solution): 87.7%
Germination rate ([1]; 1·10^−9% solution): 91.7%
Germination energy ([1]; 1·10^−10% solution): 89.7%
Germination rate ([1]; 1·10^−10% solution): 93.0%
Germination energy ([1]; 1·10^−11% solution): 86.8%
Germination rate ([1]; 1·10^−11% solution): 89.5%
Germination energy ([1]; 1·10^−12% solution): 82.0%
Germination rate ([1]; 1·10^−12% solution): 85.5%
Germination energy [1, 11]: 85.7%
Germination rate [1, 11]: 94.0%

— patent publication US10781224B2, “Bis(oxymethyl)phosphinic acid and biogenic metal salts thereof as regulators of plant growth and development” (priority 2016, dated 2020)
